Biological target: T1, human GlyT1c transporter (Homo sapiens, UniProt P48067)
T1 construct: expressed in transfected cells; host or cells: CHO cells (recombinant; line hGlyT1c_5_CHO is named for the uptake assay)
T1 sequence (P48067 1-706): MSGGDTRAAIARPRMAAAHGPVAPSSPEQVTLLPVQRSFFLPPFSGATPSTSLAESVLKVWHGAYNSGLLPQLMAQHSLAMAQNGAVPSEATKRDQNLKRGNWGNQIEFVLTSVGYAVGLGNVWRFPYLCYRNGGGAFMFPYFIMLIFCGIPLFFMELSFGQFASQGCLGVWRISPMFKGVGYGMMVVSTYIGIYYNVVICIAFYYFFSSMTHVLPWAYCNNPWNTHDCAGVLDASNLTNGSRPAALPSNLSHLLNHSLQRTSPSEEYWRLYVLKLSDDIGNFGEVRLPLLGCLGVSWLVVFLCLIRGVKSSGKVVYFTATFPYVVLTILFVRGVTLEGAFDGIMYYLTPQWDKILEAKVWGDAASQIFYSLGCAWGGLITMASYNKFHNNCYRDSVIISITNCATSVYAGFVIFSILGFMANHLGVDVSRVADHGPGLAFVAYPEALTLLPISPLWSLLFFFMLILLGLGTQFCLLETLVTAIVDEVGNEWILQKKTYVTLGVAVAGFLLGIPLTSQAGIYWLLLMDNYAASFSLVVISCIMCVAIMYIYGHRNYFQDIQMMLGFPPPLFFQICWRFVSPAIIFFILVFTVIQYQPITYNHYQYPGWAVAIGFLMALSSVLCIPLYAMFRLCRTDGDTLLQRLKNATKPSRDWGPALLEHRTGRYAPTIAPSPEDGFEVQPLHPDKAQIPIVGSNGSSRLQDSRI
Assay: Radioligand binding assay using recombinant CHO cell membranes expressing human GlyT1
Conditions: radioligand binding to human GlyT1c transporter-expressing membranes
Description: 2. Radioligand binding assays using recombinant CHO cell membranes expressing human GlyT1: […]

Ki	SMILES
≤ 100 nM	Cn1cnc(S(=O)(=O)N2C[C@@H](NCc3cccc(C(F)(F)F)c3Cl)[C@H](c3ccc(F)cc3)C2)c1 (relative stereo) [Example 149, trans-N-[2-chloro-3-(trifluoromethyl)benzyl]-4-(4-fluorophenyl)-1-[(1-methyl-1H-imidazol-4-yl)sulfonyl]pyrrolidin-3-amine]
≤ 1 nM	Cn1cnc(S(=O)(=O)N2C[C@@H](NCc3ccc(C(F)(F)F)cc3Cl)[C@H](c3ccc(F)cc3)C2)c1 (relative stereo) [Example 150, trans-N-[2-chloro-4-(trifluoromethyl)benzyl]-4-(4-fluorophenyl)-1-[(1-methyl-1H-imidazol-4-yl)sulfonyl]pyrrolidin-3-amine]
≤ 100 nM	Cn1cnc(S(=O)(=O)N2C[C@@H](NCc3ccc(C(F)(F)F)c(Cl)c3)[C@H](c3ccc(F)cc3)C2)c1 (relative stereo) [Example 151, trans-N-[3-chloro-4-(trifluoromethyl)benzyl]-4-(4-fluorophenyl)-1-[(1-methyl-1H-imidazol-4-yl)sulfonyl]pyrrolidin-3-amine]
≤ 1000 nM	Cn1cnc(S(=O)(=O)N2C[C@@H](NCc3cccc(C#N)c3)[C@H](c3ccc(F)cc3)C2)c1 (relative stereo) [Example 152, 3-[({trans-4-(4-fluorophenyl)-1-[(1-methyl-1H-imidazol-4-yl)sulfonyl]pyrrolidin-3-yl}amino)methyl]benzonitrile]
≤ 1000 nM	Cc1ccccc1CN[C@@H]1CN(S(=O)(=O)c2cn(C)cn2)C[C@H]1c1ccc(F)cc1 (relative stereo) [Example 153, trans-4-(4-fluorophenyl)-N-(2-methylbenzyl)-1-[(1-methyl-1H-imidazol-4-yl)sulfonyl]pyrrolidin-3-amine]
≤ 100 nM	Cn1cnc(S(=O)(=O)N2C[C@@H](NCc3ccc(F)cc3)[C@H](c3ccc(F)cc3)C2)c1 (relative stereo) [Example 156, trans-N-(4-fluorobenzyl)-4-(4-fluorophenyl)-1-[(1-methyl-1H-imidazol-4-yl)sulfonyl]pyrrolidin-3-amine]
≤ 100 nM	Cn1cnc(S(=O)(=O)N2C[C@@H](Nc3ccc(F)c(F)c3)[C@H](c3ccc(F)cc3)C2)c1 (relative stereo) [Example 158, trans-N-(3,4-difluorophenyl)-4-(4-fluorophenyl)-1-[(1-methyl-1H-imidazol-4-yl)sulfonyl]pyrrolidin-3-amine]
≤ 1000 nM	Cn1cnc(S(=O)(=O)N2C[C@@H](Nc3ccc(Cl)c(Cl)c3)[C@H](c3ccc(F)cc3)C2)c1 (relative stereo) [Example 161, trans-N-(3,4-dichlorophenyl)-4-(4-fluorophenyl)-1-[(1-methyl-1H-imidazol-4-yl)sulfonyl]pyrrolidin-3-amine]
≤ 1000 nM	Cn1cnc(S(=O)(=O)N2C[C@@H](Nc3ccc(Cl)c(F)c3)[C@H](c3ccc(F)cc3)C2)c1 (relative stereo) [Example 162, trans-N-(4-chloro-3-fluorophenyl)-4-(4-fluorophenyl)-1-[(1-methyl-1H-imidazol-4-yl)sulfonyl]pyrrolidin-3-amine]
≤ 10000 nM	Cn1cnc(S(=O)(=O)N2C[C@@H](Nc3cc(F)ccc3F)[C@H](c3ccc(F)cc3)C2)c1 (relative stereo) [Example 164, trans-N-(2,5-difluorophenyl)-4-(4-fluorophenyl)-1-[(1-methyl-1H-imidazol-4-yl)sulfonyl]pyrrolidin-3-amine]
≤ 1000 nM	Cn1cnc(S(=O)(=O)N2C[C@@H](Nc3ccc(F)cc3F)[C@H](c3ccc(F)cc3)C2)c1 (relative stereo) [Example 165, trans-N-(2,4-difluorophenyl)-4-(4-fluorophenyl)-1-[(1-methyl-1H-imidazol-4-yl)sulfonyl]pyrrolidin-3-amine]
≤ 1000 nM	Cn1cnc(S(=O)(=O)N2C[C@@H](Nc3ccc(F)c(F)c3F)[C@H](c3ccc(F)cc3)C2)c1 (relative stereo) [Example 166, trans-4-(4-fluorophenyl)-1-[(1-methyl-1H-imidazol-4-yl)sulfonyl]-N-(2,3,4-trifluorophenyl)pyrrolidin-3-amine]
≤ 100 nM	Cn1cnc(S(=O)(=O)N2C[C@@H](Nc3cccc(C(F)(F)F)c3F)[C@H](c3ccc(F)cc3)C2)c1 (relative stereo) [Example 167, trans-4-(4-fluorophenyl)-N-[2-fluoro-3-(trifluoromethyl)phenyl]-1-[(1-methyl-1H-imidazol-4-yl)sulfonyl]pyrrolidin-3-amine]
≤ 100 nM	Cn1cnc(S(=O)(=O)N2C[C@@H](Nc3cc(F)cc(C(F)(F)F)c3)[C@H](c3ccc(F)cc3)C2)c1 (relative stereo) [Example 168, trans-4-(4-fluorophenyl)-N-[3-fluoro-5-(trifluoromethyl)phenyl]-1-[(1-methyl-1H-imidazol-4-yl)sulfonyl]pyrrolidin-3-amine]
≤ 10000 nM	Cn1cnc(S(=O)(=O)N2C[C@@H](Nc3cc(C(F)(F)F)ccc3F)[C@H](c3ccc(F)cc3)C2)c1 (relative stereo) [Example 169, trans-4-(4-fluorophenyl)-N-[2-fluoro-5-(trifluoromethyl)phenyl]-1-[(1-methyl-1H-imidazol-4-yl)sulfonyl]pyrrolidin-3-amine]

The next lines start with the compound.

SMILES	Ki
COc1ccc(S(=O)(=O)N2C[C@@H](NC(=O)c3ccc(C(F)(F)F)cc3)[C@H](c3ccccc3)C2)cc1 (relative stereo) [Example 134, N-{trans-1-[(4-methoxyphenyl)sulfonyl]-4-phenylpyrrolidin-3-yl}-4-(trifluoromethyl)benzamide]	≤ 10000 nM
COc1ccc(S(=O)(=O)N2C[C@@H](NC(=O)c3cc(Cl)cc(Cl)c3)[C@H](c3ccccc3)C2)cc1 (relative stereo) [Example 135]	> 10000 nM
COc1ccc(S(=O)(=O)N2C[C@@H](NC(=O)c3cccc(C(F)(F)F)c3Cl)[C@H](c3ccccc3)C2)cc1 (relative stereo) [Example 136, 2-chloro-N-{trans-1-[(4-methoxyphenyl)sulfonyl]-4-phenylpyrrolidin-3-yl}-3-(trifluoromethyl)benzamide]	≤ 10000 nM
COc1ccc(S(=O)(=O)N2C[C@@H](Nc3cccc(C#N)c3)[C@H](c3ccccc3)C2)cc1 (relative stereo) [Example 137, 3-({trans-1-[(4-methoxyphenyl)sulfonyl]-4-phenylpyrrolidin-3-yl}amino)benzonitrile]	≤ 10000 nM
O=C(N[C@@H]1CN(S(=O)(=O)c2ccc(C(F)(F)F)cc2)C[C@H]1c1ccccc1)c1cc(Cl)cc(Cl)c1 (relative stereo) [Example 142, 3,5-dichloro-N-[trans-4-phenyl-1-{[4-(trifluoromethyl)phenyl]sulfonyl}pyrrolidin-3-yl]benzamide]	≤ 10000 nM
O=C(N[C@@H]1CN(S(=O)(=O)c2ccc(C(F)(F)F)cc2)C[C@H]1c1ccccc1)c1cccc(C(F)(F)F)c1Cl (relative stereo) [Example 143, 2-chloro-N-[trans-4-phenyl-1-{[4-(trifluoromethyl)phenyl]sulfonyl}pyrrolidin-3-yl]-3-(trifluoromethyl)benzamide]	≤ 10000 nM
N#Cc1cccc(N[C@@H]2CN(S(=O)(=O)c3ccc(C(F)(F)F)cc3)C[C@H]2c2ccccc2)c1 (relative stereo) [Example 144, 3-{[trans-4-phenyl-1-{[4-(trifluoromethyl)phenyl]sulfonyl}pyrrolidin-3-yl]amino}benzonitrile]	> 10000 nM
Cn1cnc(S(=O)(=O)N2C[C@@H](NCc3ccccc3)[C@H](c3ccc(F)cc3)C2)c1 (relative stereo) [Example 148, trans-N-benzyl-4-(4-fluorophenyl)-1-[(1-methyl-1H-imidazol-4-yl)sulfonyl]pyrrolidin-3-amine]	≤ 10000 nM
Cc1ccc(CN[C@@H]2CN(S(=O)(=O)c3cn(C)cn3)C[C@H]2c2ccc(F)cc2)cc1 (relative stereo) [Example 155, trans-4-(4-fluorophenyl)-N-(4-methylbenzyl)-1-[(1-methyl-1H-imidazol-4-yl)sulfonyl]pyrrolidin-3-amine]	≤ 100 nM
Cn1cnc(S(=O)(=O)N2C[C@H](c3ccccc3)[C@H](NCc3ccccc3)C2)c1 (relative stereo) [Example 157, (cis)-N-benzyl-1-[(1-methyl-1H-imidazol-4-yl)sulfonyl]-4-phenylpyrrolidin-3-amine]	≤ 10000 nM
Cn1cnc(S(=O)(=O)N2C[C@@H](Nc3ccc(F)c(Cl)c3)[C@H](c3ccc(F)cc3)C2)c1 (relative stereo) [Example 160, trans-N-(3-chloro-4-fluorophenyl)-4-(4-fluorophenyl)-1-[(1-methyl-1H-imidazol-4-yl)sulfonyl]pyrrolidin-3-amine]	≤ 10 nM
Cn1cnc(S(=O)(=O)N2C[C@@H](Nc3cccc(F)c3F)[C@H](c3ccc(F)cc3)C2)c1 (relative stereo) [Example 163, trans-N-(2,3-difluorophenyl)-4-(4-fluorophenyl)-1-[(1-methyl-1H-imidazol-4-yl)sulfonyl]pyrrolidin-3-amine]	≤ 1000 nM
